The record followed here is patent US10315992B2, “Tetracyline compounds” (Tetraphase Pharmaceuticals, Inc., priority 2012, dated 2019).

The assay relates to Burkholderia cenocepacia BC240 (cystic fibrosis isolate, MDR). As to the kind of experiment: MIC assay, BC240. The class given is cell-based. Particulars: for MIC BC 240: B. cenocepacia MDR; for MIC: Burkholderia cenocepacia.

≈ marks a conversion by molar mass, not a printed value. Like-named read-outs stand apart in the source and are kept apart here.

`CN(C)[C@@H]1C(O)=C(C(N)=O)C(=O)[C@@]2(O)C(O)=C3C(=O)c4c(O)cccc4C[C@H]3C[C@@H]12` [Sancycline, sancycline] came in with an MIC of 4 µg/mL (≈ 9.65 µM). Also, where the note is “Table 5”, the “MIC BC 240” value was 4 µg/mL (≈ 9.65 µM). The “MIC BC 240” value (Table 7) is 4 µg/mL (≈ 9.65 µM). The MIC (read-out: MIC BC 240) came to 4 µg/mL (≈ 9.65 µM).

Turning to `CN(C)c1cc(NC(=O)CNC(C)(C)C)c(O)c2c1C[C@H]1C[C@H]3[C@H](N(C)C)C(O)=C(C(N)=O)C(=O)[C@@]3(O)C(O)=C1C2=O` [Tigecycline, tigecycline], the MIC turned out to be 16 µg/mL (≈ 27.3 µM). Moreover, where the note is “Table 5”, the “MIC BC 240” value turned out to be 16 µg/mL (≈ 27.3 µM). The “MIC BC 240” value (Table 7) came to 16 µg/mL (≈ 27.3 µM). Also, where the note is “read-out: MIC BC 240”, the MIC was found to be 16 µg/mL (≈ 27.3 µM).
